Patent publication US20130197085A1, “AGENT AND METHOD FOR STABILIZING MEMBRANE PROTEIN” (priority 2007, published 2013)

Legend:
extrinsic P-gp = assay: Cell surface biotinylation method, expression on the surface of MDCKII cells; assay type: cell-based; conditions: 1 mM, 24 hours
BSEP = target: T1, BSEP (Rattus norvegicus, UniProt O70127); assay: Western blotting of canalicular membrane vesicles (CMVs) from treated rats; assay type: in vivo, SD rat; conditions: CMVs from SD rats treated at 0.6 g/kg/day for 10 days
T1 construct: from tissue; host or cells: liver of male SD rats: in vivo for A27, canalicular membrane vesicles for A28 and A29
T1 sequence (O70127 1-1321): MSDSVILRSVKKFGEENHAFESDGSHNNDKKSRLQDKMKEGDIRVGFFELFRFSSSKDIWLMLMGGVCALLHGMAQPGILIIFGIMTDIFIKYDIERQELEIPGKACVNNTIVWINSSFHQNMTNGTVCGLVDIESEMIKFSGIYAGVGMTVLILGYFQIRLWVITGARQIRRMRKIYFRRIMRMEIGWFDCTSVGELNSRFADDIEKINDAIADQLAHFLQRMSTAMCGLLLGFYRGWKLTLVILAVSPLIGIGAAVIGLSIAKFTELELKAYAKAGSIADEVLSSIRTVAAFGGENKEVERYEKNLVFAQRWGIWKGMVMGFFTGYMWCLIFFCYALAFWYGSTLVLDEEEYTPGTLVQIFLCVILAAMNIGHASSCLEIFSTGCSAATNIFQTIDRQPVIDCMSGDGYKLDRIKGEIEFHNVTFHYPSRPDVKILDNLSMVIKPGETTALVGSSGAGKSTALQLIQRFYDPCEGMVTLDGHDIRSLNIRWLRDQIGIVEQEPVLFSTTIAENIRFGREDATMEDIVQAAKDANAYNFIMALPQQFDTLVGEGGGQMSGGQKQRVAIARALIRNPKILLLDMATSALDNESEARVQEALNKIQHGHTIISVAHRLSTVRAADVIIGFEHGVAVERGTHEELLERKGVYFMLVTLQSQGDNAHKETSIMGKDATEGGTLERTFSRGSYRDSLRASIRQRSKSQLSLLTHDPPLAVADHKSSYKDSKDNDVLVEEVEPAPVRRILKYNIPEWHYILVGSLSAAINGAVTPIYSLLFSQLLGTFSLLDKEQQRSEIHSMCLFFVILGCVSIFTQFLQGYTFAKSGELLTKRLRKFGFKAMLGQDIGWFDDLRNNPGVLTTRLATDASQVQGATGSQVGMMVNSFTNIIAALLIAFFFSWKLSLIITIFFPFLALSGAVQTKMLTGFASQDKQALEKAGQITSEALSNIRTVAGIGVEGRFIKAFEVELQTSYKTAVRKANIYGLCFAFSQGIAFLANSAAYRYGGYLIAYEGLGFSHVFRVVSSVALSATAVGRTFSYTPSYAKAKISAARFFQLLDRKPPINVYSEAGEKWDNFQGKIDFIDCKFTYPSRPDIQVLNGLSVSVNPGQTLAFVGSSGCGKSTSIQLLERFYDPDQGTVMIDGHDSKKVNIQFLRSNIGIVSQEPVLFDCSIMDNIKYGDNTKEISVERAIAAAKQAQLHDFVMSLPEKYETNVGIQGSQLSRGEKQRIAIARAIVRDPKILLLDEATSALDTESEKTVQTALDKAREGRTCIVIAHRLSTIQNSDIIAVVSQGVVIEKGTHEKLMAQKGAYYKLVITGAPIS
Procedure: (§1) […] 4PBA or a vehicle was given to a male SD rat (6- to 7-week-old) for 10 days, divided over 3 administrations. Canalicular membrane vesicles were prepared from the liver of the rat (Akita et al., Biochim Biophys Acta, 1511: 7-16, 2001), and they were then used in Western blotting and a transport assay. Such transport assay was carried out by a rapid filtration method (Hayashi et al., Biochim Biophys Acta, 1738: 54-62, 2005).

DPPIV = assay: as above; assay type: in vivo, SD rat; conditions: CMVs from SD rats treated at 0.6 g/kg/day for 10 days
Procedure: as §1

P-gp = assay: as above; assay type: in vivo, SD rat; conditions: CMVs from SD rats treated at 0.6 g/kg/day for 10 days
Procedure: as §1

CFTRΔF508 = CFTRΔF508 (Homo sapiens, UniProt P13569, DEL508-508); conditions: Non-Patent Document 2; cited from earlier work
CFTRΔF508, sequence (P13569 with tags, fused parts or gaps DEL508-508): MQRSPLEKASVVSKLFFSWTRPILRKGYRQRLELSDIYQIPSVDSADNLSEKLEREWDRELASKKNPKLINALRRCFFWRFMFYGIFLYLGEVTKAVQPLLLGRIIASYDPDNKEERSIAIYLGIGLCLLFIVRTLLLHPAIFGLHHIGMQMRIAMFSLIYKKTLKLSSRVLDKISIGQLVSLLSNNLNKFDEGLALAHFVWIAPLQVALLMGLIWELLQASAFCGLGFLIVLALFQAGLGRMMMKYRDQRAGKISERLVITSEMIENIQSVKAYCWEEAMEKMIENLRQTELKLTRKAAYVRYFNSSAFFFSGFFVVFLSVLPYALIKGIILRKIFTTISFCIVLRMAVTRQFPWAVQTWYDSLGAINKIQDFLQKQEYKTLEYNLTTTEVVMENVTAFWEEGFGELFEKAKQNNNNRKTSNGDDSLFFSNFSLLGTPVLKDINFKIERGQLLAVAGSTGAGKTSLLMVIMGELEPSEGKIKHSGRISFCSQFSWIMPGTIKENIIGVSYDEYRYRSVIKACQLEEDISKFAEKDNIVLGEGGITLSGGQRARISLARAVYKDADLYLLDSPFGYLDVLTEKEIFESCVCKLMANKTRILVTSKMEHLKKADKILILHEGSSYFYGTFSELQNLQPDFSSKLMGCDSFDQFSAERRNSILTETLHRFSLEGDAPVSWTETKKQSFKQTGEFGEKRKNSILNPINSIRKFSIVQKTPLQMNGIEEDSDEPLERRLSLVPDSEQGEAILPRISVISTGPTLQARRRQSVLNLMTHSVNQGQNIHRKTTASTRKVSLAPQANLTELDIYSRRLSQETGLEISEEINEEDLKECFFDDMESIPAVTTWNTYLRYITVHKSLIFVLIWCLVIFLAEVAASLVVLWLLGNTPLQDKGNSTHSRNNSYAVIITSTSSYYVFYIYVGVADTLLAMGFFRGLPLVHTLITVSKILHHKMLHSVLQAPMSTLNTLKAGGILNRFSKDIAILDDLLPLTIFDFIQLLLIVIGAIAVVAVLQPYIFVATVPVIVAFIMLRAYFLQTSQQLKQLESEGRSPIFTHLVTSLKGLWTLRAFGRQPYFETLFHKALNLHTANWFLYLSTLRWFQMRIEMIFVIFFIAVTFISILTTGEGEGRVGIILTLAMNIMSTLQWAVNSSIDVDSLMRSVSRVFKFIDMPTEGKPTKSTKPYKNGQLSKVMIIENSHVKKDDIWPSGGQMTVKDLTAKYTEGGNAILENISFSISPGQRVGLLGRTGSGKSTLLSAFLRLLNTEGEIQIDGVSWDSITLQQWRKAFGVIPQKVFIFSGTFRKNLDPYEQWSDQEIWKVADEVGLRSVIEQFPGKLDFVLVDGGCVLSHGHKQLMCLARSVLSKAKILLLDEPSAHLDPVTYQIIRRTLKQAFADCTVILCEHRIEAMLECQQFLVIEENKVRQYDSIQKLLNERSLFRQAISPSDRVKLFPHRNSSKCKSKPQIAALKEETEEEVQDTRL

[1] = tested on: intrinsic dipeptidyl peptidase IV (DPPIV); assay: Decomposition rate of cell surface-expressed protein (biotin-labeling) in MDCKII cells; assay type: cell-based; conditions: 1 mM 4PBA
Procedure: MDCKII cells were dispersed on a 6-well plate, resulting in a density of 2.5×10^5 cells/well. After completion of the culture for 24 hours, the confluent cells were infected with recombinant adenoviruses having the cDNAs of wild-type, E297G and D482G BSEPs, and GFP, at 200 MOI. After completion of the infection, the cells were cultured for 24 hours. […] After completion of the treatment for 24 hours, the cells were biotinylated (see Hayashi et al., Hepatology, 41: 916-924, 2005).
The remaining biotinylated protein was isolated, and it was then subjected to 6% SDS-PAGE, followed by Western blotting.

wild-type BSEP mRNA = assay: Measurement of BSEP mRNA level by real-time quantitative PCR in MDCKII cells; assay type: cell-based, human; conditions: 1 mM 4PBA, 24 hours; not statistically significant (P=0.10)
Procedure: (§2) MDCKII cells were dispersed on a 6-well plate, resulting in a density of 2.5×10^5 cells/well. After completion of the culture for 24 hours, the confluent cells were infected with recombinant adenoviruses having the cDNAs of wild-type, E297G and D482G BSEPs, and GFP, at 50 MOI. After completion of the infection, the cells were cultured for 24 hours. Thereafter, the cultured cells were treated with 1 mM 4PBA. After completion of the treatment for 24 hours, RNA was isolated using ISOGEN (Wako Pure Chemical Industries, Ltd.) in accordance with an instruction manual included therewith. A DNaseI treatment was carried out at 37° C. for 1 hour, and a reverse transcription reaction was then carried out (see Hayashi et al., Hepatology, 41: 916-924, 2005). The BSEP mRNA level was measured by real-time quantitative PCR according to an ordinary method. The quantitative PCR was carried out using the following primers.
(§3) It is to be noted that the expression of a BSEP gene in each reaction was standardized by the expression of GAPDH.

D482G BSEP mRNA = assay: as above; assay type: cell-based, human; conditions: 1 mM 4PBA, 24 hours; not statistically significant (P=0.20)
Procedure: as §2, §3

E297G BSEP mRNA = assay: as above; assay type: cell-based, human; conditions: 1 mM 4PBA, 24 hours; not statistically significant (P=0.20)
Procedure: as §2, §3

## O=C(O)CCCc1ccccc1 [4PBA, 4-phenylbutyric acid]
Extrinsic P-gp
  expression of extrinsic P-gp: not influenced
BSEP
  expression level of BSEP in CMVs, increase: 3.2 times
DPPIV
  expression level of DPPIV in CMVs: not changed
P-gp
  expression level of P-gp in CMVs: not changed
CFTRΔF508
  expression of CFTRΔF508 on the cell membrane: recovers its expression on the cell membrane
[1]
  decomposition of intrinsic DPPIV on the cell surface: not influenced
wild-type BSEP mRNA
  expression level of BSEP mRNA standardized by GAPDH mRNA: slightly increased
D482G BSEP mRNA
  expression level of BSEP mRNA standardized by GAPDH mRNA: slightly increased
E297G BSEP mRNA
  expression level of BSEP mRNA standardized by GAPDH mRNA: slightly increased
